This is an account of results in patent publication US20200055839A1 (priority 2017, published 2020).

The assay concerns NL-RLuc virus. Nature of the assay: Inhibition of HIV replication (NL-RLuc virus, luciferase readout in MT-2 cells). Format: cell-based. The settings on record: MT-2 cells infected with NL-RLuc virus, 5 days of incubation, 10% FBS, at least 2 experiments. In a few lines: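 EC50 derived via median effect equation from at least 2 experiments, using luciferase expression as virus-growth readout. Replication-competent NL-RLuc reporter virus (nef partly replaced by Renilla luciferase) infected MT-2 cells with serial compound dilutions; 5-day incubation in RPMI 1640 plus 10% FBS.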

Setting [1] is: Human immunodeficiency virus 1, MT2, 120 h.

Consider `COCCNc1nc(C)c([C@H](OC(C)(C)C)C(=O)O)c(N2CCC(C)(C)CC2)c1-c1ccc(OCCc2ccc(F)cc2)cc1` [Example 27, (S)-2-(tert-Butoxy)-2-(4-(4,4-dimethylpiperidin-1-yl)-5-(4-(4-fluorophenethoxy)phenyl)-6-((2-methoxyethyl)amino)-2-methylpyridin-3-yl)acetic acid], for which, under setting [1], the EC50 worked out at 0.7 nM.
On the same count and under the same terms, in the case of `Cc1ncc(-c2ccc(OCCC(C)C)nc2)c(N2CCC(C)(C)CC2)c1[C@H](OC(C)(C)C)C(=O)O` [Example 427, (S)-2-tert-Butoxy-2-(4-(4,4-dimethylpiperidin-1-yl)-6′-(isopentyloxy)-6-methyl-3, 3′-bipyridin-5-yl)acetic acid] it was 2 nM; in that of `Cc1ncc(-c2ccc(OCc3ccc(F)cc3)cn2)c(N2CCC(C)(C)CC2)c1[C@H](OC(C)(C)C)C(=O)O` [Example 344, (2S)-2-(tert-butoxy)-2-[4′-(4,4-dimethylpiperidin-1-yl)-5-[(4-fluorophenyl)methoxy]-6′-methyl-[2,3′-bipyridine]-5′-yl]acetic acid], 2 nM.
The same measure, in the same setting: the result for `Cc1nc(-n2nc3c(c2N)CCC3)c(-c2ccc(OCCc3ccc(F)cc3)cc2)c(N2CCC(C)(C)CC2)c1[C@H](OC(C)(C)C)C(=O)O` [Example 76, (S)-2-(6-(3-Amino-5,6-dihydrocyclopenta[c]pyrazol-2(4H)-yl)-4-(4,4-dimethylpiperidin-1-yl)-5-(4-(4-fluorophenethoxy)phenyl)-2-methylpyridin-3-yl)-2-(tert-butoxy)acetic acid] reads 4 nM; that for `Cc1nc(NCCCN(C)C)c(-c2ccc(OCCc3ccc(F)cc3)cc2)c(N2CCC(C)(C)CC2)c1[C@H](OC(C)(C)C)C(=O)O` [Example 40, (S)-2-(tert-Butoxy)-2-(6-((3-(dimethylamino)propyl)amino)-4-(4,4-dimethylpiperidin-1-yl)-5-(4-(4-fluorophenethoxy)phenyl)-2-methylpyridin-3-yl)acetic acid], 2 nM; that for `Cc1nc(CO)c(-c2ccc(F)c(F)c2)c(N2CCC(C)(C)CC2)c1[C@H](OC(C)(C)C)C(=O)O` [Example 140, (2S)-2-(tert-Butoxy)-2-[5-(3,4-difluorophenyl)-4-(4,4-dimethylpiperidin-1-yl)-6-(hydroxymethyl)-2-methylpyridin-3-yl]acetic acid], 53 nM.
Same read-out and setting: the result for `Cc1nn(-c2nc(C)c([C@H](OC(C)(C)C)C(=O)O)c(N3CCC(C)(C)CC3)c2-c2ccc(OCCc3ccc(F)cc3)cc2)c(C)c1C` [Example 75, (S)-2-(tert-Butoxy)-2-(4-(4,4-dimethylpiperidin-1-yl)-5-(4-(4-fluorophenethoxy)phenyl)-2-methyl-6-(3,4,5-trimethyl-H-pyrazol-1-yl)pyridin-3-yl)acetic acid] reads 3 nM; that for `Cc1nc(-n2cccn2)c(-c2ccc(OCCc3ccc(F)cc3)cc2)c(N2CCC(C)(C)CC2)c1[C@H](OC(C)(C)C)C(=O)O` [Example 62, (S)-2-(tert-Butoxy)-2-(4-(4,4-dimethylpiperidin-1-yl)-5-(4-(4-fluorophenethoxy)phenyl)-2-methyl-6-(1H-pyrazol-1-yl)pyridin-3-yl)acetic acid], 3 nM; that for `Cc1nc(N)c(-c2cnc(OCCc3ccccc3F)c(F)c2)c(N2CCC(C)(C)CC2)c1[C@H](OC(C)(C)C)C(=O)O` [Example 117, (S)-2-(2-Amino-4-(4,4-dimethylpiperidin-1-yl)-5′-fluoro-6′-(2-fluorophenethoxy)-6-methyl-[3, 3′-bipyridin]-5-yl)-2-(tert-butoxy)acetic acid], 1 nM.
Turning to `Cc1cccc(Cl)c1CCOc1ccc(-c2cnc(C)c([C@H](OC(C)(C)C)C(=O)O)c2N2CCC(C)(C)CC2)cn1` [Example 412, (S)-2-(tert-Butoxy)-2-(6′-(2-chloro-6-methylphenethoxy)-4-(4,4-dimethylpiperidin-1-yl)-6-methyl-[3, 3′-bipyridin]-5-yl)acetic acid], the 50% effective concentration (EC50) under setting [1] turned out to be 4 nM.
With `Cc1nc(Nc2ccc(C(=O)O)cn2)c(-c2ccc(OCCc3ccc(F)cc3)cc2)c(N2CCC(C)(C)CC2)c1[C@H](OC(C)(C)C)C(=O)O` [Example 101, (S)-6-((5-(tert-Butoxy(carboxy)methyl)-4-(4,4-dimethylpiperidin-1-yl)-3-(4-(4-fluorophenethoxy)phenyl)-6-methylpyridin-2-yl)amino)nicotinic acid], it took 10 nM to reach a half-maximal effect under setting [1] (EC50).
For the compound `Cc1ncc(-c2ccc(F)nc2OCCc2ccc(F)cc2)c(N2CCC(C)(C)CC2)c1[C@H](OC(C)(C)C)C(=O)O` (single isomer, unassigned) [Example 262], the EC50 under setting [1] is 1130 nM.
The same measure, in the same setting: in the case of `Cc1nc(Nc2ccc(C#N)cn2)c(-c2ccc(OCCc3ccc(F)cc3)cc2)c(N2CCC(C)(C)CC2)c1[C@H](OC(C)(C)C)C(=O)O` [Example 109, (S)-2-(tert-Butoxy)-2-(6-((5-cyanopyridin-2-yl)amino)-4-(4,4-dimethylpiperidin-1-yl)-5-(4-(4-fluorophenethoxy)phenyl)-2-methylpyridin-3-yl)acetic acid] it was 13 nM; in that of `Cc1ncc(-c2cnc(OCCCc3ccccc3)c(F)c2)c(N2CCC(C)(C)CC2)c1[C@H](OC(C)(C)C)C(=O)O` [Example 406, (2S)-2-(tert-butoxy)-2-[4-(4,4-dimethylpiperidin-1-yl)-5′-fluoro-6-methyl-6′-(3-phenylpropoxy)-[3,3′-bipyridine]-5-yl]acetic acid], 4 nM.
For the compound `Cc1ncc(-c2ccc(OCc3ccccc3)cn2)c(N2CCC(C)(C)CC2)c1[C@H](OC(C)(C)C)C(=O)O` [Example 288, (S)-2-(5-(Benzyloxy)-4′-(4,4-dimethylpiperidin-1-yl)-6′-methyl-[2, 3′-bipyridin]-5′-yl)-2-(tert-butoxy)acetic acid], the response under setting [1] was half-maximal at 1 nM (EC50).
The same measure, in the same setting: the result for `Cc1ncc(-c2cnc(O[C@@H](C)C(C)C)c(F)c2)c(N2CCC(C)(C)CC2)c1[C@H](OC(C)(C)C)C(=O)O` [Example 370, (2S)-2-(tert-butoxy)-2-[4-(4,4-dimethylpiperidin-1-yl)-5′-fluoro-6-methyl-6′-{[(2S)-3-methylbutan-2-yl]oxy}-[3,3′-bipyridine]-5-yl]acetic acid] reads 1 nM.
Same read-out and setting: the result for `Cc1ncc(-c2ccc(OC(C)CC(C)C)nc2)c(N2CCC(C)(C)CC2)c1[C@H](OC(C)(C)C)C(=O)O` (stereo partly drawn) [Example 439, (2S)-2-tert-Butoxy-2-(4-(4,4-dimethylpiperidin-1-yl)-6-methyl-6′-(4-methylpentan-2-yloxy)-3, 3′-bipyridin-5-yl)acetic acid] reads 15 nM; that for `CCCCCOc1ccc(-c2cnc(C)c([C@H](OC(C)(C)C)C(=O)O)c2N2CCC(C)(C)CC2)nc1` [Example 317, (2S)-2-(tert-butoxy)-2-[4′-(4,4-dimethylpiperidin-1-yl)-6′-methyl-5-(pentyloxy)-[2,3′-bipyridine]-5′-yl]acetic acid], 1 nM.
Compound `Cc1ncc(-c2cnc(NCCc3ccc(F)cc3)c(F)c2)c(N2CCC(C)(C)CC2)c1[C@H](OC(C)(C)C)C(=O)O` [Example 121, (S)-2-(tert-Butoxy)-2-(4-(4,4-dimethylpiperidin-1-yl)-5′-fluoro-6′-((4-fluorophenethyl)amino)-6-methyl-[3, 3′-bipyridin]-5-yl)acetic acid] had a concentration giving a half-maximal response (EC50) of 2 nM.
Take `Cc1nc(-c2cn[nH]c2)c(-c2ccc(OCCc3ccc(F)cc3)cc2)c(N2CCC(C)(C)CC2)c1[C@H](OC(C)(C)C)C(=O)O` [Example 51, (S)-2-(tert-Butoxy)-2-(4-(4,4-dimethylpiperidin-1-yl)-5-(4-(4-fluorophenethoxy)phenyl)-2-methyl-6-(1H-pyrazol-4-yl)pyridin-3-yl)acetic acid]: a half-maximal response under setting [1] (EC50) required 5 nM.
Still for that read-out and setting: in the case of `Cc1ncc(-c2cnc(OCCc3ccc(Cl)cc3)c(F)c2)c(N2CCC(C)(C)CC2)c1[C@H](OC(C)(C)C)C(=O)O` [Example 395, (2S)-2-(tert-butoxy)-2-{6′-[2-(4-chlorophenyl)ethoxy]-4-(4,4-dimethylpiperidin-1-yl)-5′-fluoro-6-methyl-[3,3′-bipyridine]-5-yl}acetic acid] it was 2 nM.
Same read-out and setting: in the case of `Cc1ccc(Nc2nc(C)c([C@H](OC(C)(C)C)C(=O)O)c(N3CCC(C)(C)CC3)c2-c2ccc(OCCc3ccc(F)cc3)cc2)nc1` [Example 78, (S)-2-(tert-Butoxy)-2-(4-(4,4-dimethylpiperidin-1-yl)-5-(4-(4-fluorophenethoxy)phenyl)-2-methyl-6-((5-methylpyridin-2-yl)amino)pyridin-3-yl)acetic acid] it was 6 nM.
Still for that read-out and setting: in the case of `Cc1ncc(-c2ccccc2)c(N2CCC(C)(C)CC2)c1[C@H](OC(C)(C)C)C(=O)O` [Example 134, (2S)-2-(tert-Butoxy)-2-[4-(4,4-dimethylpiperidin-1-yl)-2-methyl-5-phenylpyridin-3-yl]acetic acid] it was 7 nM; in that of `Cc1nc(-c2cn(C)cn2)c(-c2ccc(OCCc3ccc(F)cc3)cc2)c(N2CCC(C)(C)CC2)c1[C@H](OC(C)(C)C)C(=O)O` [Example 57, (S)-2-(tert-Butoxy)-2-(4-(4,4-dimethylpiperidin-1-yl)-5-(4-(4-fluorophenethoxy)phenyl)-2-methyl-6-(1-methyl-1H-imidazol-4-yl)pyridin-3-yl)acetic acid], 13 nM; in that of `CCCCOc1ccc(-c2cnc(CC)c([C@H](OC(C)(C)C)C(=O)O)c2N2CCC(C)(C)CC2)nc1` [Example 279, (S)-2-(tert-Butoxy)-2-(5-butoxy-4′-(4,4-dimethylpiperidin-1-yl)-6′-ethyl-[2, 3′-bipyridin]-5′-yl)acetic acid], 6 nM.
Compound `Cc1ncc(-c2cnc(OCc3ccccc3)c(F)c2)c(N2CCC(C)(C)CC2)c1[C@H](OC(C)(C)C)C(=O)O` [Example 378, (2S)-2-[6′-(benzyloxy)-4-(4,4-dimethylpiperidin-1-yl)-5′-fluoro-6-methyl-[3,3′-bipyridine]-5-yl]-2-(tert-butoxy)acetic acid] registered an EC50 under setting [1] of 2 nM.

One may read the EC50 as the concentration needed to bring the measured effect to its halfway point.
